Numbers after ± are expanded uncertainties.
Assay: mn = molality of the nth substance listed, in mol/kg
Conditions: 101.3 kPa, Liquid, Vibrating tube method

CCCCn1cc[n+](C)c1.[Br-] [1-butyl-3-methylimidazolium bromide] + O
mass density [kg/m3]
Conditions	288.15 K	298.15 K	308.15 K	310.15 K	318.15 K
m1 = 0.0493	1001.53 ± 1	999.41 ± 1.1	996.35 ± 1.1	995.63 ± 1.1	992.48 ± 1.1
m1 = 0.0509	1001.61 ± 1	999.52 ± 1	996.47 ± 1	995.75 ± 1	992.61 ± 1
m1 = 0.0513	1001.57 ± 1	999.46 ± 1	996.38 ± 1	995.68 ± 1	992.51 ± 1
m1 = 0.0518	1001.67 ± 1	999.57 ± 1	996.52 ± 1	995.81 ± 1	992.66 ± 1
m1 = 0.0557	1001.85 ± 1	999.75 ± 1	996.69 ± 1.1	995.98 ± 1	992.83 ± 1.1
m1 = 0.1002	1003.91 ± 1.1	1001.72 ± 1.2	998.61 ± 1.1	997.87 ± 1.1	994.63 ± 1.1
m1 = 0.1004	1004.02 ± 1.1	1001.86 ± 1.2	998.75 ± 1.1	998.04 ± 1.1	994.69 ± 1.1
m1 = 0.101	1004.05 ± 1.1	1001.87 ± 1.2	998.72 ± 1.1	998 ± 1.1	994.83 ± 1
m1 = 0.1073	1004.38 ± 1.1	1002.22 ± 1	999.1 ± 1.1	998.38 ± 1.1	995.11 ± 1
m1 = 0.1133	1005.08 ± 1.1	1002.9 ± 1.1	999.78 ± 1.1	999.06 ± 1.1	995.72 ± 1.1
m1 = 0.1957	1008.66 ± 1	1006.35 ± 1	1003.13 ± 1	1002.38 ± 1	999.01 ± 1
m1 = 0.2009	1008.82 ± 1	1006.51 ± 1	1003.27 ± 1	1002.54 ± 1	999.26 ± 1
m1 = 0.201	1008.91 ± 1	1006.62 ± 1	1003.37 ± 1	1002.65 ± 1	999.35 ± 1
m1 = 0.2016	1009.08 ± 1	1006.79 ± 1	1003.57 ± 1	1002.83 ± 1	999.57 ± 1
m1 = 0.2345	1010.39 ± 1.1	1008.06 ± 1.1	1004.81 ± 1.1	1004.05 ± 1.1	1000.65 ± 1.1
m1 = 0.2633	1012.6 ± 1	1010.24 ± 1	1006.95 ± 1	1006.2 ± 1	1002.9 ± 1
m1 = 0.2918	1013.08 ± 1	1010.67 ± 1.1	1007.36 ± 1	1006.6 ± 1	1003.16 ± 1
m1 = 0.2964	1013.29 ± 1	1010.87 ± 1	1007.54 ± 1	1006.76 ± 1	1003.29 ± 1
m1 = 0.2981	1013.19 ± 1	1010.75 ± 1	1007.42 ± 1	1006.65 ± 1	1003.33 ± 1
m1 = 0.3007	1013.75 ± 1.1	1011.3 ± 1	1007.96 ± 1.1	1007.19 ± 1.1	1003.81 ± 1.1

O [water] + C[C@H](N)C(=O)O
m2 = 0
Conditions	mass density [kg/m3]
308.15 K	994.08 ± 1
310.15 K	993.38 ± 1
318.15 K	990.27 ± 1

C[C@H](N)C(=O)O [(S)-2-aminopropanoic acid] + O
mass density [kg/m3]
Conditions	m1 = 0.0522	m1 = 0.1036	m1 = 0.2032	m1 = 0.3122	m1 = 0.3941	m1 = 0.4964	m1 = 0.5873	m1 = 0.6752	m1 = 0.791
288.15 K	1000.63 ± 1	1002.12 ± 1	1004.98 ± 1	1008.03 ± 1	1010.29 ± 1	1013.01 ± 1	1015.47 ± 1	1017.77 ± 1	1020.75 ± 1
298.15 K	998.58 ± 1	1000.04 ± 1	1002.84 ± 1	1005.84 ± 1	1008.05 ± 1	1010.78 ± 1	1013.15 ± 1	1015.38 ± 1	1018.3 ± 1
308.15 K	995.56 ± 1	997 ± 1	999.75 ± 1	1002.71 ± 1	1004.9 ± 1	1007.59 ± 1	1009.93 ± 1	1012.15 ± 1	1015.04 ± 1
310.15 K	994.85 ± 1	996.28 ± 1	999.03 ± 1	1001.99 ± 1	1004.18 ± 1	1006.87 ± 1	1009.2 ± 1	1011.4 ± 1	1014.3 ± 1
318.15 K	991.74 ± 1	993.17 ± 1	995.9 ± 1	998.84 ± 1	1001 ± 1	1003.68 ± 1	1006.01 ± 1	1008.22 ± 1	1011.1 ± 1

O [water] + CCC(N)C(=O)O
Conditions	mass density [kg/m3]
310.15 K, m2 = 0	993.32 ± 1

C[C@@H](O)[C@H](N)C(=O)O [L-threonine] + O
mass density [kg/m3]
Conditions	m1 = 0.1926	m1 = 0.2858	m1 = 0.3869	m1 = 0.4789	m1 = 0.5872	m1 = 0.6687
288.15 K	1007.25 ± 1	1011.08 ± 1	1015.18 ± 1	1018.78 ± 1	1022.93 ± 1	1026.01 ± 1
298.15 K	1005.04 ± 1	1008.79 ± 1	1012.82 ± 1	1016.36 ± 1	1020.45 ± 1	1023.46 ± 1
308.15 K	1001.91 ± 1	1005.62 ± 1	1009.58 ± 1	1013.09 ± 1	1017.13 ± 1	1020.1 ± 1
310.15 K	1001.19 ± 1	1004.89 ± 1	1008.86 ± 1	1012.35 ± 1	1016.39 ± 1	1019.34 ± 1
318.15 K	998.01 ± 1	1001.68 ± 1	1005.6 ± 1	1009.09 ± 1	1013.09 ± 1	1016.02 ± 1

O [water] + CCCCn1cc[n+](C)c1.[Br-]
m2 = 0
Conditions	mass density [kg/m3]
308.15 K	994.07 ± 1
310.15 K	993.37 ± 1
318.15 K	990.26 ± 1

N[C@@H](CO)C(=O)O [L-serine] + O
mass density [kg/m3]
Conditions	m1 = 0.0489	m1 = 0.104	m1 = 0.2	m1 = 0.292	m1 = 0.3911	m1 = 0.471	m1 = 0.5884	m1 = 0.6788	m1 = 0.7168
288.15 K	1001.29 ± 1	1003.76 ± 1	1008.02 ± 1	1012.04 ± 1	1016.28 ± 1	1019.63 ± 1	1024.47 ± 1	1028.16 ± 1	1029.64 ± 1
298.15 K	999.22 ± 1	1001.64 ± 1	1005.81 ± 1	1009.76 ± 1	1013.93 ± 1	1017.22 ± 1	1021.98 ± 1	1025.59 ± 1	1027.05 ± 1
308.15 K	996.21 ± 1	998.6 ± 1	1002.72 ± 1	1006.6 ± 1	1010.72 ± 1	1013.95 ± 1	1018.62 ± 1	1022.22 ± 1	1023.66 ± 1
310.15 K	995.5 ± 1	997.89 ± 1	1002 ± 1	1005.88 ± 1	1009.98 ± 1	1013.21 ± 1	1017.85 ± 1	1021.44 ± 1	1022.88 ± 1
318.15 K	992.38 ± 1	994.75 ± 1	998.83 ± 1	1002.65 ± 1	1006.72 ± 1	1009.93 ± 1	1014.6 ± 1	1018.12 ± 1	1019.57 ± 1

O [water] + C[C@@H](O)[C@H](N)C(=O)O
Conditions	mass density [kg/m3]
310.15 K, m2 = 0	993.32 ± 1

O [water] + NCC(=O)O
m2 = 0
Conditions	mass density [kg/m3]
308.15 K	994.07 ± 1
310.15 K	993.37 ± 1
318.15 K	990.26 ± 1

CCC(N)C(=O)O (stereo not drawn) [(.+-.)-α-aminobutyric acid] + O
mass density [kg/m3]
Conditions	m1 = 0.2006	m1 = 0.4945	m1 = 0.5944	m1 = 0.6791	m1 = 0.7812	m1 = 0.8868	m1 = 0.9902
288.15 K	1004.67 ± 1	1012.46 ± 1	1015 ± 1	1017.13 ± 1	1019.67 ± 1	1022.24 ± 1	1024.71 ± 1
298.15 K	1002.5 ± 1	1010.14 ± 1	1012.62 ± 1	1014.71 ± 1	1017.19 ± 1	1019.71 ± 1	1022.13 ± 1
308.15 K	999.41 ± 1	1006.94 ± 1	1009.38 ± 1	1011.44 ± 1	1013.88 ± 1	1016.36 ± 1	1018.74 ± 1
310.15 K	998.69 ± 1	1006.2 ± 1	1008.64 ± 1	1010.69 ± 1	1013.12 ± 1	1015.6 ± 1	1017.97 ± 1
318.15 K	995.55 ± 1	1003.01 ± 1	1005.46 ± 1	1007.5 ± 1	1009.85 ± 1	1012.32 ± 1	1014.68 ± 1

O [water] + N[C@@H](CO)C(=O)O
m2 = 0
Conditions	mass density [kg/m3]
308.15 K	994.06 ± 1
310.15 K	993.36 ± 1

NCC(=O)O [2-aminoacetic acid] + O
mass density [kg/m3]
Conditions	m1 = 0.0602	m1 = 0.1201	m1 = 0.1992	m1 = 0.3016	m1 = 0.3854	m1 = 0.4462	m1 = 0.5271	m1 = 0.6444	m1 = 0.7856
288.15 K	1001.04 ± 1	1002.97 ± 1	1005.49 ± 1	1008.71 ± 1	1011.3 ± 1	1013.17 ± 1	1015.62 ± 1	1019.16 ± 1	1023.32 ± 1
298.15 K	998.98 ± 1	1000.87 ± 1	1003.34 ± 1	1006.49 ± 1	1009.02 ± 1	1010.84 ± 1	1013.23 ± 1	1016.66 ± 1	1020.69 ± 1
308.15 K	995.95 ± 1	997.8 ± 1	1000.22 ± 1	1003.32 ± 1	1005.82 ± 1	1007.61 ± 1	1009.97 ± 1	1013.36 ± 1	1017.38 ± 1
310.15 K	995.25 ± 1	997.1 ± 1	999.51 ± 1	1002.59 ± 1	1005.07 ± 1	1006.86 ± 1	1009.22 ± 1	1012.6 ± 1	1016.6 ± 1
318.15 K	992.13 ± 1	993.97 ± 1	–	999.45 ± 1	1001.91 ± 1	1003.69 ± 1	1006.03 ± 1	1009.41 ± 1	1013.42 ± 1
